{"source": "paper PMC12019328", "about": "“Discovery of an ApoE4-targeted small-molecule SirT1 enhancer for the treatment of Alzheimer’s disease” (Scientific Reports, 2025)", "key": {"ApoE4-TR:5xFAD mice": {"test_system": "ApoE4-TR:5xFAD mice", "test": "Barnes maze testing in ApoE4-TR:5xFAD mice", "type": "in vivo", "details": "20 mg/Kg BID oral, 56 days, vs vehicle", "experimental": "The active (-) enantiomer, DDL-218, underwent efficacy testing in ApoE4-TR:5xFAD mice[27] that were 6-7.5 months old at the start of treatment. ApoE4-TR:5xFAD male and female mice received either 20 mg/Kg DDL-218 BID (~ 8- to10-hour interval; total daily dose of 40 mkd) on weekdays and a single 40 mg/Kg dose on weekends (n = 12) or vehicle-only (n = 11); 8 C57BL/6 mice received vehicle-only as behavioral controls. Dosing was by the oral route and by oral feeding using a pipette as previously described, not gavage, as it is safer for repeated oral dosing than gavage. The dose of 20 mg/kg BID (40 mkd) was selected based on findings from PK analysis and was the highest feasible in the formulation used for oral feeding (compound is first solubilized in water, then mixed strawberry syrup diluted in water, for a final vehicle that is 25% syrup and 75% water). The final concentration of DDL-218 was chosen to deliver 20 mg/Kg in a volume of 10–20 µL (adjusted to the weight of each mouse). […]\nFor the probe test of memory, 48 h after the last training, the escape hole is closed and the escape box removed. […] Analysis of latency over the course of training trials was performed using ANY-Maze Software (Wood Dale, IL) and probe data was calculated manually as the software excludes mice that […] the escape hole within 90 s; in manual scoring, they are assigned a 90 s latency."}, "[1]": {"target": "hERG (human Ether-a-go-go-Related Gene) (Homo sapiens, UniProt Q12809)", "sequence (Q12809 whole entry)": "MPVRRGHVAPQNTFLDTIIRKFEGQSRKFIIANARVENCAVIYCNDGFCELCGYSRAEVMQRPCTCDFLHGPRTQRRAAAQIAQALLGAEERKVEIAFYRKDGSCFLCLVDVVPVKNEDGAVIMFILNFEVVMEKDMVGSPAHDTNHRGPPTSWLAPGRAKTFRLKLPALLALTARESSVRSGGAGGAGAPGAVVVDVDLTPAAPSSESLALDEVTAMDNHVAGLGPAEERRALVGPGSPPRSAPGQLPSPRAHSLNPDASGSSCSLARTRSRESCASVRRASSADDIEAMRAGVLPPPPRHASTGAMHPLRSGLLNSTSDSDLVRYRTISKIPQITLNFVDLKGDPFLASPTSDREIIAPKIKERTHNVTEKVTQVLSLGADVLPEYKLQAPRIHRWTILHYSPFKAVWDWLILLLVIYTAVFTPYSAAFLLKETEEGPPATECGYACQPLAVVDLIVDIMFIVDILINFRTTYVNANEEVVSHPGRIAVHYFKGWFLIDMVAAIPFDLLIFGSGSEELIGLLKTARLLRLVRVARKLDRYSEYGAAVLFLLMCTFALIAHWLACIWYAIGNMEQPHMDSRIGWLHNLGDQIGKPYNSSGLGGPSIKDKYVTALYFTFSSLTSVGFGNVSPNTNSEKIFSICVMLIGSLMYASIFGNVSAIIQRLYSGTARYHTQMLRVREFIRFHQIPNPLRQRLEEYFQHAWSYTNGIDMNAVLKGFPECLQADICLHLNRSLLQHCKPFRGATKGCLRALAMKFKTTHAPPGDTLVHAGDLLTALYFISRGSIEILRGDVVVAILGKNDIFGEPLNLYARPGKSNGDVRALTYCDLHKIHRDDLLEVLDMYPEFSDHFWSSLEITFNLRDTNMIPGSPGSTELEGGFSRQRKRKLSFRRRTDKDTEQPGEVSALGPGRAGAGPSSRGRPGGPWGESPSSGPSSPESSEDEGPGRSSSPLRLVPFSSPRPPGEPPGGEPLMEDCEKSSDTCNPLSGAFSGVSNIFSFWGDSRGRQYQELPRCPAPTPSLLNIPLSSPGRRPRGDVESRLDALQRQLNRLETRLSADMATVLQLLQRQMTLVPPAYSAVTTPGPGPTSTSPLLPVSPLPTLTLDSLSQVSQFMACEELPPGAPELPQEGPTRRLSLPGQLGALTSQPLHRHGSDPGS", "test": "hERG"}, "[2]": {"test_system": "PRMT5 mRNA in Kelly cells", "test": "PRMT5 mRNA in Kelly neuroblastoma cells", "type": "cell-based, human", "details": "5 µM, 24 h, vs DMSO", "experimental": "Human neuroblastoma ‘Kelly’ cells (genotype APOE3/APOE4) were plated in 96-well plates at 50K cells per well and were grown overnight in RPMI 1640 supplemented with 2 mM Glutamine, 10% FBS and 1% Pen-Strep. Cells were treated with 5 µM DDL-214, -218, or -219; or DMSO vehicle (n = 8 per compound). Twenty-four hours later, medium was removed, cells washed and lysed as described above for N2a-E4 cells.\nTotal RNA was isolated from cells or brain tissue (Qiagen RNEasy kit). Total RNA (0.5–1.0 µg) mRNA was then converted to cDNA (SuperScript™ III First-Strand Synthesis SuperMix kit; Thermo Fisher), and gene mRNA levels were measured using a gene-specific qRT-PCR Taqman assays (Thermo Fisher). Gene mRNA levels were normalized to GAPDH mRNA levels measured either in the same cDNA sample or in the same qPCR reaction using multiplexing of gene-of-interest/VIC and GAPDH/FAM, normalized by the delta-delta-Ct method."}}, "note": "pEC50: −log10 of the molar value.", "data": [{"compound": "CC(N)C(=O)OC(C)(C)Cc1ccncc1", "note": "(stereo not drawn) [DDL-218]", "values": [{"measurement": "latency to enter the escape hole, 48-hour post-training probe", "setting": "ApoE4-TR:5xFAD mice", "value": "decrease in latency"}, {"measurement": "pEC50", "setting": "[1]", "value": "< 5.00"}, {"measurement": "PRMT5 expression (mRNA)", "setting": "[2]", "value": "significantly increases PRMT5 expression"}]}]}
